Source: patent US9701711B2, “Modulators of protease activated receptors” (THE UNIVERSITY OF QUEENSLAND, priority 2010, dated 2017)

Tests used:
[1] = molecular target: T1, PAR2 (Homo sapiens, UniProt P55085); conditions: cited from earlier work
T1 sequence (P55085 26-397): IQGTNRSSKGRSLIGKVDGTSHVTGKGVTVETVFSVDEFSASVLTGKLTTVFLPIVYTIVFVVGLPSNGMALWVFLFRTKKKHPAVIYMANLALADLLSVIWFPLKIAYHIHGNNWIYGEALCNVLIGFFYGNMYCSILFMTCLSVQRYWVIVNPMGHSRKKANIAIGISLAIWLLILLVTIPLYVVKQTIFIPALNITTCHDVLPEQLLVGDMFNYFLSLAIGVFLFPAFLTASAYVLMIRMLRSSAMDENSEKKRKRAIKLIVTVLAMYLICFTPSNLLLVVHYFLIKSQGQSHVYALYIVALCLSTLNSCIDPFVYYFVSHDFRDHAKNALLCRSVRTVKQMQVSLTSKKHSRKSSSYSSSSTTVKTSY

[2] = molecular target: T2, PAR2 (Rattus norvegicus, UniProt Q63645); assay: Acute inflammatory model: PAR2-induced paw oedema; format: in vivo; conditions: Wistar rat, 10 mg/kg p.o. in olive oil, n=3; agonist 350 μg/paw 2 h after oral dose
T2 construct: from tissue; host or cells: paw of living male Wistar rats
T2 sequence (Q63645 26-397): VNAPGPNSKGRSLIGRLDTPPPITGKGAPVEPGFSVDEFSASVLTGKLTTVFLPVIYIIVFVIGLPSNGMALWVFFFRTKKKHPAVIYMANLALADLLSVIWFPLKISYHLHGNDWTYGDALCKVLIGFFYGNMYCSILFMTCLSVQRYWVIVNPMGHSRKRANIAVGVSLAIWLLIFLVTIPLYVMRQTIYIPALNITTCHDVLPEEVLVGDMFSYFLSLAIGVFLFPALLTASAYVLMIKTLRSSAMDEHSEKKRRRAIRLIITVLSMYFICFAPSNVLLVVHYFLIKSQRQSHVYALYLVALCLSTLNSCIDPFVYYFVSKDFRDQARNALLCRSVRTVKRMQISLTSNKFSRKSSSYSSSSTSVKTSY
Description: FIG. 9. Graphical representation of the ability of PAR2 antagonists 18, 30, 42, 44 to attenuate experimental paw oedema.
The methods used are based on those previously described (Kelso. E. B., et al. Arthritis Rheum 2007, 56, 765-71; Kelso. E. B., et al. J Pharmacol Exp Ther 2006, 316, 1017-24; and Vergnolle, N. J Immunol 1999, 163, 5064-9). Male Wistar rats (n=3 per group) are used. Briefly, rats are given either 5 or 10 mg/kg of a compound of the present invention (p.o. via gavage in olive oil, approx. 500 μL, weight adjusted). Control animals receive only olive oil (500 μL p.o.). Two hours later, the PAR2 agonist 2-furoyl-LIGRLO (350 μg/paw in saline, 100 μL) is injected into the plantar surface (i.pl.) of the right paw pad using a 30 G needle. The left paw acts as a control, receiving saline only. Paw thickness and width are measured after 30 minutes and hourly using digital calipers (World Precision Instruments, USA) and swelling is calculated in area (mm^2; thickness multiplied by width) and expressed as a percentage change from baseline of each individual paw. Results for exemplary PAR2 ligands 18, 30, 42 and 44 are illustrated in FIG. 9.

[3] = molecular target: T1, PAR2; assay: PAR2 agonist inhibition (antagonism) by intracellular Ca2+ release in HT29 cells; format: cell-based; design: Agonists of Ca^2+ release in HT29 cells; endogenous in cells; host or cells: HT29 (human cell line, cultured per ATCC information); conditions: HT29 cells; 30 min pre-incubation, then PAR2 agonist (1 μM 2f-LIGRLO-NH2); read-out: IC50, inhibition of Ca2+ release in HT29 cells
Source text: The ability of the compounds of the present invention to activate PAR2 may be assessed via calcium mobilisation assays. It is appreciated that compounds that activate the release of intracellular calcium from one type of cell are agonists or partial agonists, while those that inhibit such release may be antagonists. […] The general assay protocols may vary slightly depending on the chosen cell line. In general, during cell culture passage, cell dissociation solution (CDS, Sigma Aldrich) is used to replace trypsin to dissociate cells from surface. Lipopolysaccharide (LPS) and trypsin are purchased from Sigma Aldrich. […] ELISA sets are purchased from BD Pharmingen (San Jose, Calif.) and cytokine array kits are purchased from RayBiotecho (Norcross, Ga.).
Cells are seeded overnight in 96-well black walled, clear bottomed, plate at approximately 2×10^4 to 4×10^5 cells per well. […] The cells are then washed twice with HBSS and transferred to a Polarstar spectrotluorimeter (BMG, Durham N.C.).
The cells are prepared as outlined above then treated with the “putative” antagonist 30 min prior to the addition of either trypsin or a synthetic agonist at a concentration equal to the agonists ED80.
The cells were then treated with 1 μM of the PAR2 agonist 2f-LIGRLO-NH2 (FIG. 2A. n=5) or 100 nM Trypsin (FIG. 2B, n=1). Each data point represents mean±SEM. Net changes in fluorescence were calculated as a percentage relative to the maximum response given 1 μM 2f-LIGRLO-NH2 or 100 nM Trypsin. Changes in fluorescence (% response) were plotted against logarithmic compound concentrations. The half maximal inhibitory concentration (IC50) values were derived from the dose response curve using a nonlinear regression curve in Graphpad Prism v5.

[4] = Stability in rat liver homogenate; format: in vitro ADME; conditions: 10 μM, 37° C., up to 180 minutes
Description: Blood and liver is collected form non-drug dosed male and female Wistar rats (aged 8-9 weeks, 200-250 g and 250-300 g respectively). Bloods are centrifuged at 8 K rpm for 5 min. Plasma are pooled and stored at −80° C. for later use. The rat livers are homogenized, diluted with three volumes of PBS, cloth filtered. The filtrate is used directly for stability studies.
Lach compound is dissolved in DMSO to make […] stock solution. 10 μL of the stock is diluted with either rat plasma or liver homogenate (490 μL) to make up a starting concentration of 10 μM (triplicates). The mixtures are vortexed and incubated at 37° C. At each time point of 0, 30, 60 and 180 minutes. 100 μL of the mixture is taken and diluted with 300 μL of acetonitrile. The mixture is vortexed and centrifuged, 350 μL of the liquid is transferred into a microfuge tube and concentrated using a rotational vacuum concentrator (Christ Beta-RVC, supplied by Quantum Scientific). 100 μL of acetonitrile water (9:1, v/v) is added to the residue, vortexed and immediately analysed by LCMS/MS. Data from these experiments are expressed as percent of peak area recorded from the LCMS/MS trace at time zero (t0).

Row | Compound | Selectivity for PAR2 over PAR1 [1] | Agonist potency relative to SLIGRL-NH2 ([1]; higher agonist potency than SLIGRL-NH2) | Paw swelling induced by 2-f-LIGRLO-NH2 [2] | IC50 [3] | Stability in rat liver homogenate [4]
1 | 2-furoyl-LIGRL-NH2 | selective for PAR2 over PAR1 | ~20 fold |  |  | 
2 | CC[C@H](C)[C@H](NC(=O)[C@H](CC1CCCCC1)NC(=O)c1ccno1)C(=O)NCc1ccccc1OC [Compound 18, 5-isoxazoyl-Cha-Ile-aminomethyl-(2-methoxy)phenyl] |  |  | reduced the paw swelling | 500 ± 100 nM | decomposed to varied degree
3 | CC[C@H](C)[C@H](NC(=O)[C@H](CC1CCCCC1)NC(=O)c1ccno1)C(=O)N1CCC(c2ccccc2)CC1 [Compound 30, 5-isoxazoyl-Cha-Ile-(4-phenyl)piperidine] |  |  | reduced the paw swelling |  | decomposed to varied degree
4 | CC[C@H](C)[C@H](NC(=O)[C@H](CC1CCCCC1)NC(=O)c1cc(N)no1)C(=O)N1CCC2(C=Cc3ccccc32)CC1 [Compound 42, 5-(3-amino-isoxazoyl)-Cha-Ile-spiro[indene-1,4′-piperidine]] |  |  | reduced the paw swelling |  | decomposed to varied degree
5 | CO[C@H](C)[C@H](NC(=O)[C@H](CC1CCCCC1)NC(=O)c1ccno1)C(=O)N1CCC2(C=Cc3ccccc32)CC1 [Compound 44, 5-isoxazoyl-Cha-Thr(Me)-spiro[indene-1,4′-piperidine]] |  |  | reduced the paw swelling | 1000 nM | decomposed to varied degree
